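The compound was tested at five concentrations on cells cultured in 96-well plates, with a 48-hour exposure period. At the GI50, growth is halved.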 The source made the active and inactive calls. Cut-off read from the data, not from the text of the source: active = GI50 up to about 1.1 µM and inactive = higher.
Key:
Experiment in all cases: NCI tumour cell line growth inhibition, 48 h
[1] = system: OVCAR-4
[2] = system: ACHN
[3] = system: COLO 205
[4] = system: UACC-62
[5] = system: SNB-19
[6] = system: U-251
[7] = system: SNB-75
[8] = system: SK-OV-3
[9] = system: Malme-3M
[10] = system: MDA-MB-435
[11] = system: HCT-15
[12] = system: UO-31
[13] = system: SF-539
[14] = system: IGROV-1
[15] = system: RXF 393
[16] = system: NCI-H226
[17] = system: SK-MEL-28
[18] = system: PC-3
[19] = system: 786-0
[20] = system: SK-MEL-5

CCN(C(=O)N[C@@H](C)C(=O)N[C@@H](Cc1ccccc1)C(=O)OC)c1ccccc1
GI50 [1]: 68.4 µM (inactive) | GI50 [2]: > 100 µM (inactive) | GI50 [3]: 31.5 µM (inactive) | GI50 [4]: 31.6 µM (inactive) | GI50 [5]: > 100 µM (inactive) | GI50 [6]: > 100 µM (inactive) | GI50 [7]: 54 µM (inactive) | GI50 [8]: > 100 µM (inactive) | GI50 [9]: 34.4 µM (inactive) | GI50 [10]: > 100 µM (inactive) | GI50 [11]: 70800 nM | GI50 [12]: 31.7 µM (inactive) | GI50 [13]: 34.5 µM (inactive) | GI50 [14]: 44.7 µM (inactive) | GI50 [15]: > 100 µM (inactive) | GI50 [16]: > 100 µM (inactive) | GI50 [17]: 33.2 µM (inactive) | GI50 [18]: > 100 µM (inactive) | GI50 [19]: 39 µM (inactive) | GI50 [20]: 95.9 µM (inactive)

CN(C)CCNc1ccc(CO)c2sc3ccc(O)cc3c(=O)c12
GI50 [1]: 4.63 µM (inactive) | GI50 [2]: 0.351 µM (active) | GI50 [3]: 4.3 µM (inactive) | GI50 [4]: 1.34 µM (inactive) | GI50 [5]: 2.46 µM (inactive) | GI50 [6]: 0.783 µM (active) | GI50 [7]: 2.42 µM (inactive) | GI50 [8]: 1.76 µM (inactive) | GI50 [9]: 2.66 µM (inactive) | GI50 [10]: 1.56 µM (inactive) | GI50 [11]: 2310 nM | GI50 [12]: 0.35 µM (active) | GI50 [13]: 0.459 µM (active) | GI50 [14]: 3.42 µM (inactive) | GI50 [15]: 1.96 µM (inactive) | GI50 [16]: 1.15 µM (inactive) | GI50 [17]: 7.8 µM (inactive) | GI50 [18]: 1.32 µM (inactive) | GI50 [19]: 1.13 µM (inactive) | GI50 [20]: 1.29 µM (inactive)

COc1ccc2c3c([nH]c2c1)[C@H]1C[C@H]2[C@H](C[C@@H](O)[C@H](OC)[C@H]2C(=O)O)CN1CC3
GI50 [1]: > 100 µM (inactive) | GI50 [2]: > 100 µM (inactive) | GI50 [3]: > 100 µM (inactive) | GI50 [4]: > 100 µM (inactive) | GI50 [5]: > 100 µM (inactive) | GI50 [6]: > 100 µM (inactive) | GI50 [7]: > 100 µM (inactive) | GI50 [8]: > 100 µM (inactive) | GI50 [9]: > 100 µM (inactive) | GI50 [10]: > 100 µM (inactive) | GI50 [11]: > 100000 nM | GI50 [12]: > 100 µM (inactive) | GI50 [13]: > 100 µM (inactive) | GI50 [14]: > 100 µM (inactive) | GI50 [15]: > 100 µM (inactive) | GI50 [16]: > 100 µM (inactive) | GI50 [17]: > 100 µM (inactive) | GI50 [18]: > 100 µM (inactive) | GI50 [19]: > 100 µM (inactive) | GI50 [20]: > 100 µM (inactive)

CN(C)CCNc1ccc2c(=O)n(CCN(C)C)c(=O)n3c4ccccc4c(=O)c1c23
GI50 [1]: 0.27 µM (active) | GI50 [2]: 0.0161 µM (active) | GI50 [3]: 0.17 µM (active) | GI50 [4]: 0.0614 µM (active) | GI50 [5]: 0.137 µM (active) | GI50 [6]: 0.0402 µM (active) | GI50 [7]: 0.0513 µM (active) | GI50 [8]: < 0.0392 µM (active) | GI50 [9]: 0.18 µM (active) | GI50 [10]: 0.145 µM (active) | GI50 [11]: 81.5 nM | GI50 [12]: 0.166 µM (active) | GI50 [13]: 0.0321 µM (active) | GI50 [14]: 0.0404 µM (active) | GI50 [15]: 0.109 µM (active) | GI50 [16]: 0.0603 µM (active) | GI50 [17]: 0.116 µM (active) | GI50 [18]: 0.114 µM (active) | GI50 [19]: < 0.0198 µM (active) | GI50 [20]: 0.0427 µM (active)
